Data as given in patent publication US10550144B2, “6-aryl-9-glycosylpurines and use thereof” (UNIVERZITA PALACKEHO V OLOMOUCI, priority 2014, dated 2020).

Experiments:
[1] = tested on: Triticum aestivum cv. Hereward detached leaf segments; assay: Senescence bioassay on detached wheat leaf segments (chlorophyll retention); assay type: in vivo; conditions: for maximum effective concentration: 96 h incubation in the dark at 25° C., tested 10^−8 M to 10^−4 M
Procedure: Seeds of winter wheat, Triticum aestivum cv. Hereward, were washed under running water for 24 hours and then sown on vermiculite soaked with Knop's solution. They were placed in the growth chamber at 25° C. with a 16/8 h light period at 50 μmol·m^−2·s^−1. After 7 days, the first leaf was fully developed and the second leaf had started to grow. A tip section of the first leaf, approximately 35 mm long, was removed from 5 seedlings and trimmed slightly to a combined weight of 100 mg. The basal ends of the five leaf tips were placed in the wells of a microtiter polystyrene plate containing 150 μL of the tested derivative solution each. The entire plate was inserted into a plastic box lined with paper tissues soaked in distilled water to prevent leaf sections from drying out. After 96 h incubation in the dark at 25° C., the leaves were removed and chlorophyll extracted by heating at 80° C. for 10 min in 5 mL of 80% ethanol (v/v). The sample volume was then restored to 5 mL by the addition of 80% ethanol (v/v). The absorbance of the extract was recorded at 665 nm. In addition, chlorophyll extracts from fresh leaves and leaf tips incubated in deionised water were measured. The results are means of five replicates and the entire test was repeated twice. […] The compounds to be tested were dissolved in dimethylsulfoxide (DMSO) and the solution brought up to 10^−3M with distilled water. […] The activity obtained for 10^−4 M of BAP was postulated as 100%.

[2] = tested on: Amelanchier alnifolia nodal explants; assay: Micropropagation growth response with BAP, Amelanchier alnifolia; conditions: after 35 days in vitro, N = 9
[3] = tested on: Harpagophytum procumbens nodal explants; assay: Micropropagation growth response with BAP, Harpagophytum procumbens; conditions: after 35 days in vitro, N = 12
[4] = tested on: Dais cotinifolia shoot-tip explants; assay: Shoot multiplication and shoot-tip necrosis in shoot cultures of Dais cotinifolia; assay type: in vivo; conditions: after 8 weeks of culture
Procedure: Explants were washed thoroughly with 0.1% (v/v) of Tween® 20 for 2 min, and decontaminated with 70% ethanol for 15 sec followed by 0.2% aqueous HgCl2 for 10 min. The explants were rinsed five times with sterile distilled water. […] Each value was presented as the mean±standard error, with three replicates; each replicate consisting of 15 explants per treatment.

[5] = tested on: Gymnosporia buxifolia shoot-tip explants; assay: Shoot-tip necrosis in in vitro cultures of Gymnosporia buxifolia; conditions: after 4 weeks of culture
[6] = 10 μM BAP alone (Treatment No. 2)

OC[C@H]1O[C@@H](n2cnc3c(NCc4ccc(Cl)cc4Cl)ncnc32)[C@H](O)[C@@H]1O [6-(2,4-dichlorbenzylamino)-9-riboside, reference compound]
activity (%) [10^−4 mol · l^−1 BAP = 100%] ([1]; chlorophyll content at the maximum effective concentration, 96 h in the dark): 5 ± 1%

OC[C@H]1O[C@@H](n2cnc3c(NCc4ccccc4Br)ncnc32)[C@@H](O)[C@@H]1O [6-(2-bromobenzylamino)-9-β-D-arabinofuranosylpurine]
maximum effective concentration [1]: 10^−5 mol · l^−1

COc1ccc(CNc2ncnc3c2ncn3[C@@H]2O[C@H](CO)[C@@H](O)[C@@H]2O)cc1OC [6-(3,4-dimethoxybenzylamino)-9-β-D-arabinofuranosylpurine]
maximum effective concentration [1]: 10^−4 mol · l^−1

OC[C@H]1O[C@@H](n2cnc3c(NCc4cccc(Br)c4)ncnc32)[C@@H](O)[C@@H]1O [6-(3-bromobenzylamino)-9-β-D-arabinofuranosylpurine]
maximum effective concentration [1]: 10^−4 mol · l^−1

OC[C@H]1O[C@@H](n2cnc3c(NCc4cccc(Cl)c4)ncnc32)[C@@H](O)[C@@H]1O [6-(3-chlorobenzylamino)-9-β-D-arabinofuranosylpurine]
maximum effective concentration [1]: 10^−4 mol · l^−1

OC[C@H]1O[C@@H](n2cnc3c(NCc4cccc(F)c4)ncnc32)[C@@H](O)[C@@H]1O [6-(3-fluorobenzylamino)-9-β-D-arabinofuranosylpurine]
maximum effective concentration [1]: 10^−4 mol · l^−1

OC[C@H]1O[C@@H](n2cnc3c(NCc4cccc(I)c4)ncnc32)[C@@H](O)[C@@H]1O [6-(3-iodobenzylamino)-9-β-D-arabinofuranosylpurine]
maximum effective concentration [1]: 10^−4 mol · l^−1

OC[C@H]1O[C@@H](n2cnc3c(NCc4ccc(Br)cc4)ncnc32)[C@@H](O)[C@@H]1O [6-(4-bromobenzylamino)-9-β-D-arabinofuranosylpurine]
maximum effective concentration [1]: 10^−4 mol · l^−1

OC[C@H]1O[C@@H](n2cnc3c(NCc4ccco4)ncnc32)[C@@H](O)[C@@H]1O [6-furfurylamino-9-β-D-arabinofuranosylpurine]
maximum effective concentration [1]: 10^−4 mol · l^−1

c1ccc(CNc2ncnc3nc[nH]c23)cc1 [BA, 6-benzylaminopurine, reference compound]
Fresh weight (g) mean SE [2, 6]: 0.319 ± 0.1255 g | Shoot length (mm) mean SE [2, 6]: 17.22 ± 1.770 mm | Shoot no. mean SE [2, 6]: 7.7 ± 2.65 | Fresh weight (g) mean SE [3, 6]: 0.3614 ± 0.05563 g | Shoot length (mm) mean SE [3, 6]: 19.4 ± 1.529 mm | Shoot no. mean SE [3, 6]: 1.5 ± 0.167 | Morphogenesis in vitro ([4]; 10 μM in MS medium): Dark green shoots + SBI | STN [%] (shoot-tip necrosis) ([4]; 10 μM in MS medium): 61.5 ± 1.02a % | Shoot length [cm] ([4]; 10 μM in MS medium): 1.52 ± 0.26bc cm | Shoots [explant^−1] […] ([4]; 10 μM in MS medium): 3.4 ± 0.37a explant^−1 | STN [%] (shoot-tip necrosis) ([5]; 10 μM in MS medium): 73.3 ± 0.20a % | Shoot length [cm] ([5]; 10 μM in MS medium): 1.92 ± 0.09b cm | Shoots [explant^−1] […] ([5]; 10 μM in MS medium): 1.0 ± 0.0a explant^−1

OC[C@H]1O[C@@H](n2cnc3c(NCc4ccccc4F)ncnc32)[C@@H](O)[C@@H]1O [Example 2FBAPA, 6-(2-fluorobenzylamino)-9-β-D-arabinofuranosylpurine]
Fresh weight (g) mean SE ([2]; 5 μM compound with 10 μM BAP): 0.178 ± 0.0428 g | Shoot length (mm) mean SE ([2]; 5 μM compound with 10 μM BAP): 14.33 ± 2.754 mm | Shoot no. mean SE ([2]; 5 μM compound with 10 μM BAP): 7.2 ± 1.41 | Fresh weight (g) mean SE ([2]; 10 μM compound with 10 μM BAP): 0.529 ± 0.1739 g | Shoot length (mm) mean SE ([2]; 10 μM compound with 10 μM BAP): 14.67 ± 1.291 mm | Shoot no. mean SE ([2]; 10 μM compound with 10 μM BAP): 13.2 ± 3.44 | Fresh weight (g) mean SE ([2]; 20 μM compound with 10 μM BAP): 0.492 ± 0.0593 g | Shoot length (mm) mean SE ([2]; 20 μM compound with 10 μM BAP): 19.33 ± 2.571 mm | Shoot no. mean SE ([2]; 20 μM compound with 10 μM BAP): 15.4 ± 1.62 | Fresh weight (g) mean SE ([2]; 30 μM compound with 10 μM BAP): 0.584 ± 0.1564 g | Shoot length (mm) mean SE ([2]; 30 μM compound with 10 μM BAP): 16.44 ± 2.369 mm | Shoot no. mean SE ([2]; 30 μM compound with 10 μM BAP): 14.9 ± 2.40 | Fresh weight (g) mean SE ([3]; 5 μM compound with 10 μM BAP): 0.8764 ± 0.1818 g | Shoot length (mm) mean SE ([3]; 5 μM compound with 10 μM BAP): 19.8 ± 3.2721 mm | Shoot no. mean SE ([3]; 5 μM compound with 10 μM BAP): 1.7 ± 0.335 | Fresh weight (g) mean SE ([3]; 10 μM compound with 10 μM BAP): 0.6712 ± 0.1149 g | Shoot length (mm) mean SE ([3]; 10 μM compound with 10 μM BAP): 23.9 ± 3.195 mm | Shoot no. mean SE ([3]; 10 μM compound with 10 μM BAP): 2.5 ± 0.477 | Fresh weight (g) mean SE ([3]; 20 μM compound with 10 μM BAP): 0.8935 ± 0.231 g | Shoot length (mm) mean SE ([3]; 20 μM compound with 10 μM BAP): 34.9 ± 5.608 mm | Shoot no. mean SE ([3]; 20 μM compound with 10 μM BAP): 2.8 ± 0.291 | Fresh weight (g) mean SE ([3]; 30 μM compound with 10 μM BAP): 0.6877 ± 0.1009 g | Shoot length (mm) mean SE ([3]; 30 μM compound with 10 μM BAP): 23.7 ± 2.937 mm | Shoot no. mean SE ([3]; 30 μM compound with 10 μM BAP): 2.4 ± 0.267 | Morphogenesis in vitro ([4]; 5 μM in MS medium): Pale green shoots | STN [%] (shoot-tip necrosis) ([4]; 5 μM in MS medium): 33.3 ± 0.74e % | Shoot length [cm] ([4]; 5 μM in MS medium): 1.12 ± 0.12bc cm | Shoots [explant^−1] […] ([4]; 5 μM in MS medium): 1.0 ± 0.00c explant^−1 | Morphogenesis in vitro ([4]; 10 μM in MS medium): Pale green shoots | STN [%] (shoot-tip necrosis) ([4]; 10 μM in MS medium): 31.5 ± 1.18ef % | Shoot length [cm] ([4]; 10 μM in MS medium): 1.54 ± 0.16bc cm | Shoots [explant^−1] […] ([4]; 10 μM in MS medium): 1.6 ± 0.24bc explant^−1 | Morphogenesis in vitro ([4]; 20 μM in MS medium): Green shoots | STN [%] (shoot-tip necrosis) ([4]; 20 μM in MS medium): 27.7 ± 0.74g % | Shoot length [cm] ([4]; 20 μM in MS medium): 1.90 ± 0.14ab cm | Shoots [explant^−1] […] ([4]; 20 μM in MS medium): 2.0 ± 0.32b explant^−1 | Morphogenesis in vitro ([4]; 30 μM in MS medium): Green shoots | STN [%] (shoot-tip necrosis) ([4]; 30 μM in MS medium): 20.0 ± 0.44h % | Shoot length [cm] ([4]; 30 μM in MS medium): 2.40 ± 0.27a cm | Shoots [explant^−1] […] ([4]; 30 μM in MS medium): 2.3 ± 0.37b explant^−1 | STN [%] (shoot-tip necrosis) ([5]; 5 μM in MS medium): 66.7 ± 0.32b % | Shoot length [cm] ([5]; 5 μM in MS medium): 1.02 ± 0.15bc cm | Shoots [explant^−1] […] ([5]; 5 μM in MS medium): 1.0 ± 0.0a explant^−1 | STN [%] (shoot-tip necrosis) ([5]; 10 μM in MS medium): 58.0 ± 0.40c % | Shoot length [cm] ([5]; 10 μM in MS medium): 1.82 ± 0.13b cm | Shoots [explant^−1] […] ([5]; 10 μM in MS medium): 1.0 ± 0.0a explant^−1 | STN [%] (shoot-tip necrosis) ([5]; 20 μM in MS medium): 42.0 ± 1.20f % | Shoot length [cm] ([5]; 20 μM in MS medium): 3.20 ± 0.17a cm | Shoots [explant^−1] […] ([5]; 20 μM in MS medium): 1.0 ± 0.0a explant^−1 | STN [%] (shoot-tip necrosis) ([5]; 30 μM in MS medium): 26.6 ± 0.37h % | Shoot length [cm] ([5]; 30 μM in MS medium): 2.98 ± 0.12a cm | Shoots [explant^−1] […] ([5]; 30 μM in MS medium): 1.0 ± 0.0a explant^−1
